Experimental data taken from ChEMBL document CHEMBL6177944, “Derivatization of ophiobolin A and cytotoxicity toward breast and glioblastoma cancer stem cells: Varying the ketone and unsaturated aldehyde moieties” (Bioorg Med Chem Lett, 2025).
pIC50: −log10 of the molar value. Calls of active or inactive are those of the source. The rule behind the calls is not given here.

Key:
[1] = Cytotoxicity against HMLE cells assessed as reduction in cell viability at 1 uM relative to control; type: toxicity, cell-based; conditions: human
[2] = system: HMLE; test: (§1) Cytotoxicity against HMLE cells expressing Twist EMT+; type: functional, cell-based; conditions: Homo sapiens
[3] = Selectivity index, ratio of IC50 for cytotoxicity against human T98G cells to IC50 for cytotoxicity against human GBM43 cells; type: functional
[4] = Cytotoxicity against human GBM43 cells; type: functional, cell-based; conditions: GBM43 cell
[5] = system: T98G; test: Cytotoxicity against human T98G cells; type: functional, cell-based
[6] = system: MCF7; test: Cytotoxicity against human MCF7 cells; type: functional, cell-based
[7] = Selectivity index, ratio of IC50 for cytotoxicity against human MCF7 cells to IC50 for cytotoxicity against human MDA-MB-231 cells; type: cell-based
[8] = Selectivity index, ratio of IC50 for cytotoxicity against HMLE cells to IC50 for cytotoxicity against human HMLE cells expressing Twist EMT+; type: toxicity, cell-based; conditions: HMLE cells and HMLE cells expressing Twist (EMT+), read-out: Ratio IC50
[9] = as §1; type: functional, cell-based; conditions: Homo sapiens
[10] = system: MDA-MB-231; test: Cytotoxicity against human MDA-MB-231 cells; type: functional, cell-based
[11] = Cytotoxicity against HMLE cells; type: toxicity, cell-based; conditions: human

Row | Compound | Activity [1] [%] | Activity [2] | Ratio IC50 [3] | pIC50 [4] | pIC50 [5] | pIC50 [6] | Ratio IC50 [7] | selectivity ratio [8] | pIC50 [9] | pIC50 [10] | pIC50 [11]
1 | COc1cccc2c1C(=O)c1c(O)c3c(c(O)c1C2=O)C[C@@](O)(C(=O)CO)C[C@@H]3O[C@H]1C[C@H](N)[C@H](O)[C@H](C)O1 [DOXORUBICIN] | < 50 | inactive |  |  |  |  |  |  |  |  | 
2 | CC(C)=C[C@H]1C[C@H](C)[C@]2(CC[C@]3(C)C[C@@H]4C(C)=CC(=O)[C@@H]4/C(CO)=C\C[C@H]32)O1 |  |  | ~12 | 4.62 | 3.53 |  |  |  |  |  | 
3 | CC(C)=C[C@H]1C[C@H](C)[C@]2(CC[C@]3(C)C[C@H]4[C@H]5[C@@H](CC[C@H]32)[C@H](O)O[C@H]5C[C@@]4(C)O)O1 |  |  | ~1.2 | 3.44 | 3.35 | 3.83 | ~ 1.1 | ~0.47 | 3.91 | 3.87 | 4.24
4 | CC(C)=C[C@H]1C[C@H](C)[C@]2(CC[C@]3(C)C[C@H]4[C@H](C(=O)C[C@@]4(C)O)/C(C=O)=C\C[C@H]32)O1 [OPHIOBOLIN A] |  |  | ~9 |  | 5.72 |  |  | ~2.1 | 7.54 |  | 7.20
5 | CC(C)=C[C@H]1C[C@H](C)[C@]2(CC[C@]3(C)C[C@H]4[C@H]5/C(=C\C[C@H]32)CO[C@@]5(O)C[C@@]4(C)O)O1 |  |  |  |  |  | 3.97 | ~ 0.84 | ~2.9 | 5.05 | 3.89 | 4.59
6 | CC(C)=C[C@H]1C[C@H](C)[C@]2(CC[C@]3(C)C[C@H]4[C@H]5/C(=C\C[C@H]32)C(O)O[C@H]5C[C@@]4(C)O)O1 (stereo partly specified) |  |  |  |  |  | 4.40 | ~ 0.25 | ~2.2 | 4.65 | 3.80 | 4.30
7 | CC1(C)CC/C=C(/C=O)[C@H]2C(=O)C[C@@](C)(O)[C@H]2C1 |  |  | ~8 | 3.97 | 3.07 |  |  |  |  |  | 
8 | CC(C)=C[C@H]1C[C@H](C)[C@]2(CC[C@]3(C)C[C@H]4[C@H]5/C(=C\C[C@H]32)C(=O)O[C@H]5C[C@@]4(C)O)O1 [OPHIOBOLIN A LACTONE] |  |  | ~12 | 5.07 | 3.99 | 3.63 | ~ 0.74 | ~1.4 | 4.20 | 3.50 | 4.04
9 | CC(C)=C[C@H]1C[C@H](C)[C@]2(CC[C@]3(C)C[C@H]4[C@@H](/C(CO)=C\C[C@H]32)[C@@H](O)C[C@@]4(C)O)O1 |  |  |  | < 3.00 | < 3.00 | 3.41 | ~ 1 | ~1 | 3.87 | 3.42 | 3.85
